Results on 25 molecules are retold here after patent US20260207618A1, “PYRIMIDINE CARBOXAMIDE COMPOUNDS” (Acrivon Therapeutics, Inc., priority 2022, published 2026).

The target of test [1] is T1, recombinant human Wee1A kinase (Homo sapiens, UniProt P30291).
T1 construct: full length Wee1A kinase was expressed by baculovirus in insect cells; purchased Invitrogen PV3817; host or cells: insect cells (baculovirus)
The test is described as follows: LanthaScreen Europium (Eu) Kinase Binding Assay, Wee1A kinase (TR-FRET tracer displacement). The following applies: 30 nM tracer 178, 5 nM Wee1A kinase, 60 minutes at room temperature. The text has this: We used a LanthaScreen Europium (Eu) Kinase Binding Assay to determine the binding of provided compounds to Wee1A kinase. The assay utilizes an Alexa Fluor 647-labeled ATP competitive kinase tracer that binds to the ATP binding site of a GST-tagged Wee1A kinase, while a europium (Eu) labeled antibody binds to the GST tag. The proximity of fluorescently labeled kinase tracer and europium (Eu) donor fluorophore antibody leads to fluorescence resonance energy transfer (FRET) to the fluorescence label (acceptor) upon excitation of the Eu (donor). Displacement of tracer from the ATP-binding site by a test compound disturbs the proximity between both labels thus lowering the FRET.
This time resolved-FRET binding assay was performed in white 384-well low volume plates (Greiner, cat #784075), at room temperature in kinase buffer A (KBA; Invitrogen cat #PV3189), consisting of 50 mM HEPES-NaOH (pH 7.5), 0.01% Brij-35, 10 mM MgCl2, and 1 mM EGTA. 5 μl of compound (diluted in reaction buffer, to 1% DMSO) were added to various wells in the plate, followed by 5 μl each of recombinant human Wee1A kinase (full length Wee1A kinase was expressed by baculovirus in insect cells using a N-terminal GST tag (MW: 99.1 kDa) (Invitrogen cat #PV3817) and LanthaScreen Eu-anti-GST antibody (Invitrogen, cat #PV5594). After this, 5 μl of kinase tracer 178 (Invitrogen, cat #PV5593) was added to the plate and the plate was incubated for 60 minutes at room temperature. The final assay conditions in each well were: 30 nM tracer 178, 5 nM Wee1A kinase and 2 nM Eu-labeled antibody in total assay volume of 15 μl. An Envision 2104 (Perkin-Elmer) Plate Reader with the following time-resolve fluorescence setting was used for performing LanthaScreen kinase binding assay. • Excitation 320 nm (30 nm bandpass) • Kinase Tracer Emission 665 nm (10 nm bandpass) • LanthaScreen Eu-anti-Tag Antibody Emission 615 nm (10 nm bandpass) • Dichroic Mirror Instrument dependent • Delay Time 100 μs • Integration Time 200 μs
To calculate the emission ratio, the acceptor/tracer emission ([…]) was divided by the antibody/donor emission ([…]) and the average of duplicate measurement was used for calculations. Data plotting, analysis of binding, and curve fitting was done using Excel add-in XLfit version 5.5.0.5 (IDBS, Guildford, United Kingdom).

Test [2] concerns Cdk1 phosphorylated on tyrosine 15. The test is described as follows: High-content imaging of pCdk1 Y15 by immunofluorescence in ACHN cells. The format is cell-based. The following applies: Homo sapiens, high-content imaging (IF), 4 h, 7 to 5000 nM, read-out: CDK1 Tyr15 Phosphorylation EC50 (IC50). On the procedure: ACHN renal cell carcinoma cell line (ATCC) was cultured in Minimum Essential Medium Eagle supplemented with 10% fetal calf serum (Sigma), 1% Penicillin-Streptomycin and 10 mM HEPES buffer (HyClone). Cell cultures were kept in a humidified incubator at 37° C. and 5% CO2. Cells were routinely tested for Mycoplasma contamination.
High-content imaging of ACHN renal cell carcinoma cells was used for quantification of CDK1 phosphorylated on tyrosine 15 by immunofluorescence (“IF”). 20 000 cells per well were seeded in tissue culture treated 96 well plates and treated with compounds at concentrations ranging from 7 to 5000 nM for 4 h. Cells were fixated for 15 minutes in 4% paraformaldehyde solution, washed in PBS and permeabilized using 0.2% Triton X-100. Blocking was performed for 1 h at RT using Blocker FL Fluorescent Blocking Buffer (Thermo Scientific), thereafter cells were incubated with primary antibody (rabbit anti-pCDK1 Y^15, #4539, Cell Signaling Technology) at 4° C. ON. Alexa Fluor Plus 647 labelled goat anti-rabbit (A32733. Thermo Scientific) was used as secondary antibody. After washing in PBS, nuclei were stained with DAPI solution for 10 min at RT, protected from light. Cells were imaged using an ImageXpress Pico automated imaging system and CellReporter Xpress software (Molecular Devices). The percentage cells with nuclear positivity for pCdk1 Y^15 compared to DMSO control was determined for each well and drug dose response curves and EC50 values were calculated and visualized using GraphPad Prism.

T1 sequence (P30291 whole entry): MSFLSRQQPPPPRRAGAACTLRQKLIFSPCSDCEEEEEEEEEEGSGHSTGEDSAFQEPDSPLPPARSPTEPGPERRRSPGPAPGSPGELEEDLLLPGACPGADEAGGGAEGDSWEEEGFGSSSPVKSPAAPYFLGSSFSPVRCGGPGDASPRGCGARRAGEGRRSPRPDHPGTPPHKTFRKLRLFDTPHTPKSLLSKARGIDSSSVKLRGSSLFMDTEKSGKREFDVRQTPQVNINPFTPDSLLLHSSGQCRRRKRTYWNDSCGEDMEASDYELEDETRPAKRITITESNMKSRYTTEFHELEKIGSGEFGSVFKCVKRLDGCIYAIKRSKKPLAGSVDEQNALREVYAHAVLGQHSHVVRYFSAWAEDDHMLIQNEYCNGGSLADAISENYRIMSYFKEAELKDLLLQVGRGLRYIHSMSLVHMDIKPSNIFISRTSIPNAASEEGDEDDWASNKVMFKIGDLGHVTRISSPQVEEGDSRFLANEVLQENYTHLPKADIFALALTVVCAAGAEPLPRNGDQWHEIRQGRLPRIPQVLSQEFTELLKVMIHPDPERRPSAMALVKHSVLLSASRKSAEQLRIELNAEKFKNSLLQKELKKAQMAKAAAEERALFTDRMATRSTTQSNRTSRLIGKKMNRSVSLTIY

In general, IC50 refers to the concentration at which inhibition is half-maximal. The EC50 is the concentration needed to bring the measured effect to its halfway point. For the molecule `COc1nc(Nc2ccc(C3CCN(C)CC3)c(C)c2)ncc1C(=O)Nc1cc(O)ccc1Cl` [Compound 138, N-(2-chloro-5-hydroxyphenyl)-4-methoxy-2-((3-methyl-4-(1-methylpiperidin-4-yl)phenyl)amino)pyrimidine-5-carboxamide], the IC50 in test [1] was at most 10 nM. In test [2], the EC50 is over 1000 nM.

With `COc1nc(Nc2ccc(C(=O)N3CCN(C)CC3)c(C)c2)ncc1C(=O)Nc1c(Cl)cccc1Cl` [Compound 168], the IC50 in test [1] lay in the range of 10 to 100 nM. Take `CCOc1nc(Nc2cnn([C@H](C)CNC)c2)ncc1C(=O)Nc1c(Cl)cccc1Br` [Compound 203, N-(2-bromo-6-chlorophenyl)-2-{1-[(R)-1-methyl-2-(methylamino)ethyl]-4-pyrazolylamino}-4-ethoxy-5-pyrimidinecarboxamide]: the half-maximal inhibitory concentration (IC50) in test [1] is at most 10 nM. The EC50 in test [2] is over 1000 nM.

Regarding `CN(C)CCCOc1nc(Nc2ccc(N3CCN(C)CC3)cc2)ncc1C(=O)Nc1c(Cl)cccc1Cl` [Compound 124, N-(2,6-dichlorophenyl)-4-(3-(dimethylamino)propoxy)-2-((4-(4-methylpiperazin-1-yl)phenyl)amino)pyrimidine-5-carboxamide], the “Wee1A kinase Binding IC50” value in test [1] is “C (IC50 greater than 100 nM but less than or equal to 5.00 nM)”. As to `COc1nc(Nc2ccc([C@H]3CCN(C)C3)c(C)c2)ncc1C(=O)Nc1c(Cl)cccc1Br` [Compound 192], the IC50 in test [1] is at most 10 nM. Also, in test [2], the EC50 lay within 100 to 500 nM. With `C#Cc1cccc(Br)c1NC(=O)c1cnc(Nc2ccc(C3CCNCC3)c(C)c2)nc1OC` [Compound 184, N-(2-bromo-6-ethynylphenyl)-4-methoxy-2-((3-methyl-4-(piperidin-4-yl)phenyl)amino)pyrimidine-5-carboxamide], in test [1], the IC50 is at most 10 nM. In addition, in test [2], the EC50 is 100 to 500 nM.

On to `COc1nc(Nc2ccc(C3CCN(C)CC3)c(C)c2)ncc1C(=O)Nc1c(F)cccc1Br` [Compound 136, N-(2-bromo-6-fluorophenyl)-4-methoxy-2-((3-methyl-4-(1-methylpiperidin-4-yl)phenyl)amino)pyrimidine-5-carboxamide], for which the IC50 in test [1] is at most 10 nM. For the same molecule, the EC50 in test [2] fell in the range of 100 to 500 nM. As for `COc1nc(Nc2ccc(C3CCN(C)CC3)c(C)c2)ncc1C(=O)Nc1c(Cl)ccc(F)c1F` [Compound 125, N-(6-chloro-2,3-difluorophenyl)-4-methoxy-2-((3-methyl-4-(1-methylpiperidin-4-yl)phenyl)amino)pyrimidine-5-carboxamide], in test [1], the IC50 was at most 10 nM. Moreover, the EC50 in test [2] was over 1000 nM. As to `COc1nc(Nc2cnn(C[C@@H]3CCCN3)c2)ncc1C(=O)Nc1c(Cl)cccc1Cl` [Compound 160], in test [1], the IC50 is 10 to 100 nM.

For `COc1nc(Nc2cnn(C[C@H]3CCCN3)c2)ncc1C(=O)Nc1c(Cl)cccc1Cl` [Compound 159], the IC50 in test [1] is 10 to 100 nM. Take `COc1nc(Nc2ccc(OCCN3CCOCC3)c(C)c2)ncc1C(=O)Nc1c(Cl)ccc(O)c1C` [Compound 151, N-(6-chloro-3-hydroxy-2-methylphenyl)-4-methoxy-2-((3-methyl-4-(2-morpholinoethoxy)phenyl)amino)pyrimidine-5-carboxamide]: the EC50 in test [2] was over 1000 nM. For the molecule `COc1nc(Nc2ccc(C3CCN(C)CC3)c(C)c2)ncc1C(=O)Nc1ccccc1C#N` [Compound 115, N-(2-cyanophenyl)-4-methoxy-2-((3-methyl-4-(1-methylpiperidin-4-yl)phenyl)amino)pyrimidine-5-carboxamide], the IC50 in test [1] is 10 to 100 nM. With `COc1nc(Nc2ccc(C3CCN(C)CC3)c(C)c2)ncc1C(=O)Nc1cc([N+](=O)[O-])ccc1C` [Compound 170], the “Wee1A kinase Binding IC50” value in test [1] is reported as “C (IC50 greater than 100 nM but less than or equal to 5.00 nM)”. `COc1nc(Nc2ccc(C3CCN(C)CC3)c(C)c2)ncc1C(=O)Nc1cc(C#N)ccc1Cl` [Compound 131, N-(2-chloro-5-cyanophenyl)-4-methoxy-2-((3-methyl-4-(1-methylpiperidin-4-yl)phenyl)amino)pyrimidine-5-carboxamide]: the “Wee1A kinase Binding IC50” value in test [1] is “C (IC50 greater than 100 nM but less than or equal to 5.00 nM)”. For the molecule `COc1nc(Nc2ccc(C3CCN(C)CC3)c(C)c2)ncc1C(=O)Nc1cccc(O)c1` [Compound 118], the IC50 in test [1] lay within 10 to 100 nM. Same read-out and setting: in the case of `COc1nc(Nc2ccc(-c3ccn(C)c3)c(C)c2)ncc1C(=O)Nc1c(Cl)cccc1Br` [Compound 191, N-(2-bromo-6-chlorophenyl)-4-methoxy-2-((3-methyl-4-(1-methyl-1H-pyrrol-3-yl)phenyl)amino)pyrimidine-5-carboxamide] it was 10 to 100 nM. In the case of `COc1nc(Nc2ccc(C3CCN(C)CC3)c(C)c2)ncc1C(=O)Nc1cc(NC(C)=O)ccc1C` [Compound 169], the “Wee1A kinase Binding IC50” value in test [1] is listed as “C (IC50 greater than 100 nM but less than or equal to 5.00 nM)”. As to `COc1nc(Nc2ccc([C@H]3CCCN(C)CC3)c(C)c2)ncc1C(=O)Nc1c(Cl)cccc1Br` [Compound 208], the IC50 in test [1] was at most 10 nM. In the case of `COc1nc(Nc2ccc(C3CCN(C)CC3)c(C)c2)ncc1C(=O)Nc1c(C)ccnc1C` [Compound 112, N-(2,4-dimethylpyridin-3-yl)-4-methoxy-2-{[3-methyl-4-(1-methylpiperidin-4-yl)phenyl]amino}pyrimidine-5-carboxamide], the concentration for half-maximal inhibition (IC50) in test [1] is 10 to 100 nM.

`CN1CCN(c2ccc(Nc3ncc(C(=O)Nc4c(Cl)cccc4Cl)c(OCC(F)(F)F)n3)cc2)CC1` [Compound 103, N-(2,6-dichlorophenyl)-2-{[4-(4-methylpiperazin-1-yl)phenyl]amino}-4-(2,2,2-trifluoroethoxy)pyrimidine-5-carboxamide]: in test [1], the IC50 lay in the range of 10 to 100 nM. The same measure, in the same setting: next, `COc1nc(Nc2ccc(C3CCN(C)CC3)c(C)c2)ncc1C(=O)Nc1c(C)ccnc1Cl` [Compound 117, N-(2-chloro-4-methylpyridin-3-yl)-4-methoxy-2-{[3-methyl-4-(1-methylpiperidin-4-yl)phenyl]amino}pyrimidine-5-carboxamide]: 10 to 100 nM; `C#Cc1ccccc1NC(=O)c1cnc(Nc2ccc(C3CCN(C)CC3)c(C)c2)nc1OC` [Compound 126, N-(2-ethynylphenyl)-4-methoxy-2-((3-methyl-4-(1-methylpiperidin-4-yl)phenyl)amino)pyrimidine-5-carboxamide]: 10 to 100 nM. The same measure, in the same setting: in the case of `COc1nc(Nc2ccc(C3CCN(C)CC3)c(C)c2)ncc1C(=O)Nc1cnccc1Cl` [Compound 139, N-(4-chloropyridin-3-yl)-4-methoxy-2-((3-methyl-4-(1-methylpiperidin-4-yl)phenyl)amino)pyrimidine-5-carboxamide] it was 10 to 100 nM; in that of `COc1nc(Nc2ccc(C3CCN(C)CC3)c(C)c2)ncc1C(=O)Nc1ccccc1Cl` [Compound 109, N-(2-chlorophenyl)-4-methoxy-2-((3-methyl-4-(1-methylpiperidin-4-yl)phenyl)amino)pyrimidine-5-carboxamide], 10 to 100 nM; in that of `COc1nc(Nc2ccc(C3CCN(C)CC3)nc2)ncc1C(=O)Nc1c(Cl)cccc1Cl` [Compound 183, N-2,6-dichlorophenyl-4-methoxy-2-[6-(1-methyl-4-piperidyl)-3-pyridylamino]-5-pyrimidinecarboxamide], 10 to 100 nM.
